Each structure is given as a SMILES string.

The test system of the data set is Crohn's Disease (CD). As to the kind of experiment: Oral limonene regimen in two patients suffering from Crohn's Disease (case reports, Examples 2 and 3). The settings on record: for anal bleeding under prior medication regimen: Example 3 subject before limonene, combined regimen of six tablets ASACOL (mesalamine) daily and two 50 mg tablets IMURAN (azathioprine) daily. The protocol:
As used herein, “treatment” shall mean temporary or permanent alleviation or elimination of CD symptoms and/or intestinal damage.
A preferred adult dose of limonene is about 400 to 1,000 milligrams, more preferably 1,000 mg, administered once daily, typically for a period of 10 to 30 days. Other dosing regimens, such as every other day and twice weekly regimens, may be desired, depending upon the patient. In fact, it will be appreciated by those of ordinary skill in the art that the amount of limonene, dosing schedule, and duration of treatment may vary depending upon the individual's age, weight, and severity of the CD.
Upon diagnosis, the patient underwent a partial small bowel surgical resection wherein about one foot of intestine and appendix were surgically removed.
To alleviate the symptoms of CD, the subject was taking the following prescriptions and over-the-counter medications: 1 Cortisone injection every six months; 1 tablet of 2.5 mg diphenoxylate/0.025 mg atropine every 8 hours as needed; twelve tablets (2.0 mg each) of IMODIUM (loperamide) every day as needed.
Prior to treatment with the limonene regimen, the subject discontinued taking their prescription and OTC medications for CD except for one cortisone injection in April 2001 and about 1 to 2 tablets of IMODIUM (lopcramide) per month. They began taking 1000 mg d-limonene (98%) on March 2001. […] The subject then began taking 400 mg of d-limonene once a week for two weeks, followed by 400-mg d-limonene twice a week for three weeks. The subject was then put on a regimen of 1000 mg d-limonene take once a week for three weeks, increasing to 1000 mg twice a week for three weeks. After that series, the subject began taking 1000 mg d-limonene every other day for three weeks. The subject continued to take 1000 mg d-limonene twice a week for maintenance.
A subject diagnosed with CD in November 1999 after undergoing a colonoscopy.
The subject began treatment with the inventive limonene method in January 2001, taking 1000 mg of d-limonene daily. […] For maintenance therapy, the patient continued to take three 1000 mg capsules of d-limonene per week.

As for `Nc1ccc(O)c(C(=O)O)c1` [ASACOL, mesalamine, reference compound], the “anal bleeding under prior medication regimen” value is “bleeding ceased for about six to eight months, and then reoccurred”.
Regarding `Cn1cnc([N+](=O)[O-])c1Sc1ncnc2nc[nH]c12` [IMURAN, azathioprine, reference compound], the “anal bleeding under prior medication regimen” value is “bleeding ceased for about six to eight months, and then reoccurred”.
Consider `C=C(C)[C@H]1CC=C(C)CC1` [d-limonene], for which the “adverse effect on first dosing” value (Example 2, subject with CD, 1000 mg d-limonene (98%) oral, regimen discontinued immediately) is reported as “severe acid reflux”. In addition, the anal bleeding result by setting is: (Example 2, subject with CD, during treatment, when taking 1000 mg d-limonene) “stopped almost immediately”; (Example 3, subject with CD, about seven days after start of 1000 mg d-limonene daily) “no anal bleeding”. Moreover, the “abdominal pain or cramping” value (Example 2 subject, during maintenance, 1000 mg d-limonene twice a week) is listed as “no abdominal pain or cramping”. Further, the “normal stools per day” value (Example 2 subject, during maintenance, 1000 mg d-limonene twice a week, about ten stools/day before treatment) lay in the range of 1 to 2 times a day. Besides, the stools per day (Example 3, subject with CD, about seven days after start of 1000 mg d-limonene daily, ten stools/day before) is on record as 1–2 stools per day.

Values taken from patent publication US7041706B2, “Method for treating crohn's disease” (priority 2002, dated 2006).
